The record followed here is ChEMBL document CHEMBL1139458, “Discovery of small-molecule inhibitors of the ATPase activity of human papillomavirus E1 helicase” (J Med Chem, 2004).

The structures appear in SMILES notation. Where only a bound is given, the exact number is not on record here.

The target of this test is T1, DNA helicase/primase complex protein (Herpes simplex virus (type 1 / strain 17), UniProt P10236).
T1 sequence (P10236 whole entry): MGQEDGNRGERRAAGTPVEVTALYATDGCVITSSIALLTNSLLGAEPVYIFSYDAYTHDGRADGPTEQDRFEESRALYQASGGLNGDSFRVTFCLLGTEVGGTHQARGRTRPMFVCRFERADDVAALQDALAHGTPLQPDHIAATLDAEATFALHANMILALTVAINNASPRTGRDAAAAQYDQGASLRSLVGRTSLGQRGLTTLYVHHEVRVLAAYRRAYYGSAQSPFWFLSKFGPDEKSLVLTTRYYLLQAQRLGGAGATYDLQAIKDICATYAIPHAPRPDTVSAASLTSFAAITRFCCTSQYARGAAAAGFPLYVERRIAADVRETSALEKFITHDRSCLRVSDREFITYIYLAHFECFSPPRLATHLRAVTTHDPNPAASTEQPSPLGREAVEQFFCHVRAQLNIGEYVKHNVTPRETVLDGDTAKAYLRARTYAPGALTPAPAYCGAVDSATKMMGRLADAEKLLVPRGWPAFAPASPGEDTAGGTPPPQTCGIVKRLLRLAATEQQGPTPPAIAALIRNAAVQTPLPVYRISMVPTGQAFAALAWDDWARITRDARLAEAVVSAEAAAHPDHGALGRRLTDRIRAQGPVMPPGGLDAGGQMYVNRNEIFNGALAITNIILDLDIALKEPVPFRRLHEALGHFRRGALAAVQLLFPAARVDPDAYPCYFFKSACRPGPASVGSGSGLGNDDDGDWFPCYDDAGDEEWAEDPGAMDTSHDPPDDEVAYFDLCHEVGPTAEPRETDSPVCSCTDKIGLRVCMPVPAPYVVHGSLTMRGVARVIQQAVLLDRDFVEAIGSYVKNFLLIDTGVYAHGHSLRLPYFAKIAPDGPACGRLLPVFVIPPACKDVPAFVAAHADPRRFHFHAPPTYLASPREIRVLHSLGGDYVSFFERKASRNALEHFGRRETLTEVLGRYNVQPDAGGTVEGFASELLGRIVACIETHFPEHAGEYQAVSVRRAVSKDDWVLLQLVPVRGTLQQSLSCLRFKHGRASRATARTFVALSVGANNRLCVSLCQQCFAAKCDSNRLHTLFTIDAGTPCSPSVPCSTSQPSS
The experiment in a line: Inhibitory concentration against herpes simplex virus helicase primase 8 (HSV).

The IC50 is the concentration at which inhibition is half-maximal. A high value points to lower potency. Consider `O=C(O)CS(=O)(=O)c1ccc(-c2ccccc2)cc1`, for which the IC50 is greater than 80 µM.
